Source: patent publication US11639325B2, “Compositions of polyhydroxylated benzophenones and methods of treatment of neurodegenerative disorders” (Massachusetts Institute of Technology, priority 2015, dated 2023)
Entries after “also recorded” stand apart in the source; their conditions may differ. Read-outs that look alike come from different tables or passages of the source.

Columns and labels:
HDAC1 = target: T1, HDAC1 (Homo sapiens, UniProt Q13547); experiment: RapidFire Mass Spec assay of HDAC1 deacetylase activity with acetylated peptide substrates; type: biochemical; settings: for HDAC1 activation (deacetylase activity): Bio-H4K12ac and bio-p53K382ac peptide substrates; for reversal of HDAC1 inhibition by CI-994: HDAC1 preincubated with exifone 1 or 10 μM, or with CI-994 1, 5 or 10 μM for 2 hours
T1 construct: purchased BPS Biosciences (San Diego, Calif.)
Method: (§1) Bio-H4K12ac and Bio-p53K382ac peptides were purchased from Anaspec (Fremont, Calif.). Recombinant HDAC1 and HDAC2 were from BPS Biosciences (San Diego, Calif.). Biochemical assays for evaluation of enzyme activity were performed in 384-well microplates (Perkin Elmer, Waltham, Mass.). A high throughput mass spectrometry assay based on RapidFire™ platform (Agilent Technology, Wakefield, Mass.) was used for analysis of HDAC activity with acetylated peptide substrates derived from histone Bio-H4K12ac (Anaspec #64849) and non-histone Bio-p53K382ac (Anaspec #65046) sequences.
For determination of dose dependence curves, test compounds were preincubated with HDAC1 for 15 minutes. Histone deacetylase reactions were performed following addition of acetylated peptide substrate. The reactions were performed in standard 384-well plates in 50 μl volume with an assay buffer containing 50 mM Tris, pH 7.4, 100 mM KCl, and 0.01% Brij-35. Enzyme reactions were terminated by adding 5 μl of 10% formic acid. Experiments designed to determine the mechanism of action used a varied range of substrate and test compound concentrations. For determining the dose response of individual compounds, HDAC1 reactions were performed with 1 μM of the acetylated peptide substrate for durations ranging from 45 mins for Bio-p53K382ac and 60 minutes for Bio-H4K12ac, with the aim of keeping the substrate conversion below 10%.
For Mass Spec based detection, assay plates were transferred onto a high throughput RapidFire200 integrated autosampler/solid-phase extraction (SPE) system (Agilent Technologies, Wakefield, Mass.) coupled to an API4000 triple quadrupole mass spectrometer (Applied Biosystems, Concord, Ontario, Canada). Additional details for the RapidFire MS analysis are described elsewhere (Rye et al. Advances in label-free screening approaches for studying sirtuin-mediated deacetylation. J Biomol Screen. 2011 December; 16(10):1217-26; Rye et al. Advances in label-free screening approaches for studying histone acetyltransferases. J Biomol Screen. 2011 December; 16(10):1186-95). The peaks detected by Mass Spec were integrated and processed with RapidFire peak integration software (Agilent).
Percentage of substrate conversion was estimated from the RapidFire HTMS assay as a function of product and substrate mass spectrum peak areas and is equal to 100*[Product/(Product+Substrate)]. Percentage of enzyme activation=[(MIN-test compound)/(MIN−MAX)*100], where MINimal (0%) enzyme activity is observed in the presence of a histone deacetylase inhibitor [10 μM SAHA (suberoylanilide hydroxamic acid), SAHA; Vorinostat] and MAXimal enzyme activity of HDAC1 reaction in absence of test compound as 100% activity. MAX and MIN values were calculated from an average of 16 wells of a single column of 384 well plate. Data were analyzed and plotted using Graphpad Prism 6.
Activator potencies were compared by estimating the EC^1.5 values as a function of EC50 values and maximum relative velocity (RVmax) (Dai et al, 2010). EC^1.5 is the concentration of the activator required to achieve 1.5 fold activation (Dai et al, 2010). Data on enzyme activation were analyzed using non-essential enzyme activation (Segel, (1975) Enzyme Kinetics, John Wiley, New York).

5XFAD mice [1] = experiment: Western blotting of hippocampi of treated 5XFAD mice (histone deacetylation); type: in vivo, mouse; settings: 50 mg/kg i.p. for 2 weeks
Method: To determine the effects of restoration of HDAC1 activity in 5XFAD mice, mice were treated with exifone. Briefly, eight-month-old mice were administered doses of 50 mg/kg body weight exifone or vehicle control (10% DMSO, 10% Tween-80 and 80% saline) by intraperitoneal injection for 2 weeks. After 2 weeks of treatment, hippocampi were dissected and homogenized in RIPA buffer for Western blotting (FIGS. 10B and 10C).

HDAC2 = target: T2, HDAC2 (Homo sapiens, UniProt Q92769); experiment: RapidFire Mass Spec assay of HDAC2 deacetylase activity; type: biochemical; settings: FIG. 4; read-out: EC50 for HDAC2 activation
T2 construct: purchased BPS Biosciences (San Diego, Calif.)
Method: as §1
For determination of dose dependence curves, test compounds were preincubated with HDAC1 for 15 minutes. […]
For Mass Spec based detection, assay plates were transferred onto a high throughput RapidFire200 integrated autosampler/solid-phase extraction (SPE) system (Agilent Technologies, Wakefield, Mass.) coupled to an API4000 triple quadrupole mass spectrometer (Applied Biosystems, Concord, Ontario, Canada). […] The peaks detected by Mass Spec were integrated and processed with RapidFire peak integration software (Agilent).
Percentage of substrate conversion was estimated from the RapidFire HTMS assay as a function of product and substrate mass spectrum peak areas and is equal to 100*[Product/(Product+Substrate)]. […] MAX and MIN values were calculated from an average of 16 wells of a single column of 384 well plate. […]

[2] = test system: Human induced pluripotent stem cell (iPSC)-derived neurons; experiment: Viability (Alamar Blue) of human iPSC-derived neurons under rotenone stress; type: cell-based
Text: To further determine the effects of exifone on neurodegenerative disorders like frontotemporal dementia, Alzheimer's disease, and Parkinson's disease, a cellular model of mitochondrial dysfunction and tauopathy was used. Human induced pluripotent stem cell (iPSC)-derived neurons from a healthy control (FIG. 15A) and a frontotemporal dementia patient with a mutation in tau (FIG. 15B) were differentiated in culture for eight weeks (See Silva et al., Stem Cell Reports, 2016). […] Cell viability was measured by Alamar Blue (4 h) assay±SD. Statistical Analysis: Student T-Test; ^nsP>0.05, *P<0.05, **P<0.01, ***P<0.001; n=2 and technical triplicates.

CK-p25 mice = experiment: CK-p25 mouse model of neurodegeneration: immunohistochemistry and fear conditioning; type: in vivo
Method: (§2) For contextual fear conditioning, mice were put in the conditioning chamber (TSE systems) for 3 min, after which they received a one-time footshock (2 s, 0.8 mA). After 24 hr in the home cage, mice were placed in the same chamber and the freezing bouts, defined as a total lack of movement except for a heartbeat and respiration, were scored during every 10 s during a 3 min period.
(§3) Cued fear conditioning was performed by placing the animals in the test chamber for 3 min following exposure to the auditory cue (30 s, 20 kHz, 75 db sound pressure level) and a foot shock (2 s, 0.8 mA). Associative learning was assessed 24 hr later by placing the mice in the modified chamber and delivery of the identical auditory cue for 3 min.
CK-p25 mice are characterized by massive neuronal loss and severe memory impairment after 6 weeks of the p25 transgene induction (Cruz et al. Aberrant Cdk5 activation by p25 triggers pathological events leading to neurodegeneration and neurofibrillary tangles. Neuron. 2003 Oct. 30; 40(3):471-83). Exifone was chronically administered in CK-p25 mice, model, 3-month-old CK-p25 mice and control mice (no p25 overexpression) were induced for 6 weeks. They received either daily Exifone or vehicle for 3 weeks from week 3 to 6 during the induction period (FIG. 8A).
The associative memory in mice was examined by the contextual fear conditioning test described in Example 3. Mice were treated with vehicle control or exifone and freezing behavior observed 24 hours after contextual fear conditioning training.

cultured neurons = experiment: Immunostaining for γH2AX (DNA double-stranded breaks) in cultured neurons; type: cell-based
5XFAD mice [3] = experiment: 5XFAD mice behavioral tests (open field, contextual and cued fear conditioning); type: in vivo, mouse; settings: 50 mg/kg i.p. for 2 weeks
Method: 8-month-old males (WT or 5XFAD mice) received daily for two weeks of full treatment either vehicle (80% saline, 10% DMSO, 10% Tween-80) or exifone (FIG. 1A) (50 mg/kg). Administration was by intraperitoneal injection for 2 weeks. After 2 weeks of treatment, mice were handled more than 3 days before each behavioral test.
Open field test was monitored by TSE Multi Conditioning System, total distance traveled and the number of visits in center were measured using automated activity monitors.
To assess memory formation, fear-conditioning tests in rodents were used. In these paradigms, the extent of freezing behavior, which is defined as the complete lack of movement other than from respiration upon re-exposure to an aversive stimulus (e.g. mild foot shock) and an environmental cue in the form of a specific context (e.g. test chamber) or cue (e.g. a tone), provides an assessment of the strength of memory. […]
as §2, §3
Behavioral tests were performed on vehicle treated wild type (WT) mice and 5XFAD mice treated with either vehicle control or exifone. […] In both contexts, freezing behavior of the mice was scored for examination memory.

5XFAD mice [4] = experiment: LTP recording in hippocampal slices of treated 5XFAD mice; type: in vivo, mouse; settings: thirteen-month-old 5XFAD mice, 50 mg/kg i.p. for 2 weeks
Method: Thirteen-month-old mice were administered doses of 50 mg per kg body weight exifone or vehicle by intraperitoneal injection for 2 weeks before long-term potentiation (LTP) recordings. For LTP recording, mice were anesthetized with isoflurane and decapitated. Transverse hippocampal slices (400 μm thick) were prepared in ice-cold dissection buffer (in mM: 211 sucrose, 3.3 KCl, 1.3 NaH2PO4, 0.5 CaCl2, 10 MgCl2, 26 NaHCO3 and 11 glucose) using a Leica VT1000S vibratome (Leica). Slices were recovered in a submerged chamber with 95% O2/5% CO2-saturated artificial cerebrospinal fluid (ACSF) consisting of (in mM) 124 NaCl, 3.3 KCl, 1.3 NaH2PO4, 2.5 CaCl2, 1.5 MgCl2, 26 NaHCO3 and 11 glucose for 1 h at 28-30° C. For extracellular LTP recording, CA1 field potentials evoked by Schaffer collateral stimulation with bipolar electrode was measured every 30 s. After recording of stable baseline for 15 min, LTP was induced by single theta-burst stimulations (TBS, containing 10 brief bursts which consisted of four pulses at 100 Hz).

[5] = increasing exifone concentrations
[6] = AD mice model (CK-p25 mice) as printed

T1 sequence (Q13547 whole entry): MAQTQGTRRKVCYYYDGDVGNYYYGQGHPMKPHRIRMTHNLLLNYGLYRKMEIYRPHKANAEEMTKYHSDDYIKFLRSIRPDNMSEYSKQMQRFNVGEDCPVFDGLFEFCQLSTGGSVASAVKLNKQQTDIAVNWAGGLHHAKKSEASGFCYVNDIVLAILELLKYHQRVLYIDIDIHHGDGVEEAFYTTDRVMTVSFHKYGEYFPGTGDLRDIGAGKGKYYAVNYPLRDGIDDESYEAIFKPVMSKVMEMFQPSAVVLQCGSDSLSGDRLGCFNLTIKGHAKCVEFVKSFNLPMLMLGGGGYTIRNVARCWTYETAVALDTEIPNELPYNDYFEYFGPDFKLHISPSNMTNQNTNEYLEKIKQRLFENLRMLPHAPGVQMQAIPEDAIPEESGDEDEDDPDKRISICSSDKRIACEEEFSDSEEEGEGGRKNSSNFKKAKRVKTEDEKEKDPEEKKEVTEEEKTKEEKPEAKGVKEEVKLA
T2 sequence (Q92769 whole entry): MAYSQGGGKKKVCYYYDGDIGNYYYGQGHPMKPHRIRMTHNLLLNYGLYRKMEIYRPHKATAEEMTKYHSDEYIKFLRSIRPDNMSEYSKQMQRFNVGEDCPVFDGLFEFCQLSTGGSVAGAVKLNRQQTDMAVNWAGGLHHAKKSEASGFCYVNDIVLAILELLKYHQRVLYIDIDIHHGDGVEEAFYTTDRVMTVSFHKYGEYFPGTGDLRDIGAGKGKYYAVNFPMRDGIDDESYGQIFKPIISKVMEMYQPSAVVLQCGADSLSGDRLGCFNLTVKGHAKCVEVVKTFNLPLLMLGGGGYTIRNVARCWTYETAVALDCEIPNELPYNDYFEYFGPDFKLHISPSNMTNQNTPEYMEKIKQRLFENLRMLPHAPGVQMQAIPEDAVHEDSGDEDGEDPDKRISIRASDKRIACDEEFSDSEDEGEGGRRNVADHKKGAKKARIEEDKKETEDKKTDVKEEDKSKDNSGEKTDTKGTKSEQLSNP

O=C(c1ccccc1)c1ccccc1 [Benzophenone]
HDAC1 activation (deacetylase activity) (HDAC1): did not cause HDAC1 activation
HDAC1 activation (deacetylase activity) (HDAC1; listed as non-hydroxylated benzophenone): does not

O=C(c1cc(O)c(O)c(O)c1)c1ccc(O)c(O)c1O [exifone]
histone deacetylation and HDAC1 activity in hippocampus (5XFAD mice [1]): trend towards increased histone deacetylation and HDAC1 activity
EC50 (HDAC2): 82 nM
rescue of viability of tauopathy patient-derived neurons from rotenone-induced stress ([2]; 8 hours pre-treatment, then 18 hour rotenone, multiple doses): rescued the vulnerability
maximal activation of HDAC1 (HDAC1; 2 hour incubation of HDAC1 at room temperature prior to addition to reaction mix): up to nine fold
HDAC1 activation (deacetylase activity) (HDAC1): dose-dependent increase in HDAC1 activation; also recorded: potent small molecule activator of HDAC1; also recorded: increases the deacetylase activity of HDAC1
selectivity for HDAC1 activation compared with HDAC2 (HDAC1; FIG. 4): at least four fold more selective
EC50 (HDAC1; FIG. 4, read-out: EC50 for HDAC1 activation (selectivity experiment)): 20 nM
EC50 (HDAC1; FIGS. 1B and 1D, 2 hour incubation of HDAC1 at room temperature prior to addition to reaction mix, read-out: EC50 of HDAC1 activation): 45 nM
reversal of HDAC1 inhibition by CI-994 (HDAC1): capable of reversing inhibition
reversal of HDAC1 inhibition by CI-994 (HDAC1; listed as Exifone): partially reversed the inhibitory effect
HDAC1 activation at high substrate concentration (HDAC1; bio-H4K12ac peptide concentrations of 125 and 250 μM): No activation was observed
Vmax of HDAC1 reaction (HDAC1; [5]): increased the Vmax
apparent Km for the bio-H4K12ac peptide (HDAC1; [5]): decreased the apparent Km
rate of HDAC1-mediated deacetylation (substrate conversion) (HDAC1; substrate 1 μM, HDAC1 40 nM, exifone 0.05 μM vs control): increased the rate of HDAC1-mediated reactions compared to control conditions; also recorded: increases the rate of deacetylation reaction by HDAC1
mechanism of HDAC1 activation (HDAC1; varied substrate and activator concentrations): mixed non-essential reaction
basal locomotion in the open-field test (CK-p25 mice; [6]): without an effect on basal locomotion
cognitive function in cued fear-conditioning test (CK-p25 mice; [6]): not in cued fear-conditioning test
freezing behavior / cognitive function in contextual fear conditioning test (CK-p25 mice; CK-p25 mice, 24 hours after training): enhances the cognitive function; also recorded: comparable freezing behavior to vehicle-treated or exifone-treated control mice
neuronal loss / markers of neurodegeneration (γH2A.X, NeuN, Hoechst) in hippocampus (CK-p25 mice; CK-p25 mice, daily for 3 weeks during p25 induction): significantly ameliorated neuronal loss; also recorded: significant reduction of these markers of neurodegeneration; also recorded: ameliorates neuronal loss
γH2AX intensity (DNA damage) (cultured neurons): significantly reduced the intensity of γH2AX; also recorded: protection from DNA damage
freezing response in conditioned (contextual) fear conditioning test (5XFAD mice [3]): significantly increased
freezing response in cued fear conditioning test (5XFAD mice [3]): significantly increased
open-field total distance traveled and number of visits to the center (5XFAD mice [3]): no effect on either of these parameters
LTP induction (5XFAD mice [4]): reinstatement of LTP induction

C=C(C)[C@H]1Cc2c(ccc3c2O[C@@H]2COc4cc(OC)c(OC)cc4[C@@H]2C3=O)O1 [rotenone]
decrease in viability of tauopathy patient-derived neurons ([2]; rotenone, 18 hour): > 50%
